Values belong to the substance of their own block, whether it stands above or below them.
What was measured:
[1] = tested on: B16-F10, A549, rabbit smooth muscle and bovine aortic endothelial cells; test: Cell adhesion assay, summary over the four cell types of Table II; assay type: cell-based; details: for Cell attachment compared to TSP, range over four cell types: text summary of Table II
Heparin binding activity = details: data not shown
human platelets = test: ADP-induced platelet aggregation in platelet-rich plasma; assay type: cell-based; details: ADP for 5 min, 500 ug/ml peptide; buffer control more than 1,000 per clump
[2] = Oxidative stability of peptide in solution; assay type: physicochemical
[3] = tested on: B16-F10 mouse melanoma cells in C57BL/6 mouse; test: Tumor cell metastasis assay; assay type: in vivo; details: compared with buffer control

- Heparin binding activity (Heparin binding activity): did not
- Oxidation in solution (in words) ([2]; multimers with apparent molecular weights of 2,000 on SDS-gels): slowly oxidized in solution
- Time for which freshly prepared solutions were stable ([2]; peptide in solution, oxidation of cysteine thiols): at least 2 h
Substance: CSVTCG
- Cell attachment compared to TSP, range over four cell types [1]: 29-49%
- Platelets per clump (human platelets): 10-50 platelets per clump

Substance: ANKHYF [reference compound]
- Cell adhesive activity (in words) [1]: little or no significant cell adhesive activity
- Effect on lung tumor colony formation (in words) [3]: no significant effect

- Heparin binding activity (Heparin binding activity): possessed heparin binding activity
Substance: CRVTCG

Substance: TCVCGS [reference compound]
- Cell adhesive activity (in words) [1]: little or no significant cell adhesive activity
- Effect on lung tumor colony formation (in words) [3]: no significant effect

Substance: Cyclic CSVTCG (disulfide)
- Cell adhesive activity (in words) [1]: approximately to the same extent as CSVTCG

Substance: CSTSCR
- Cell attachment compared to TSP, range over four cell types [1]: 39-104%

Substance: VCTGSC [reference compound]
- Cell adhesive activity (in words) [1]: little or no significant cell adhesive activity

Substance: CSVTCR
- Cell attachment compared to TSP, range over four cell types [1]: 90-159%

Substance: TSP: 450,000-dalton glycoprotein secreted by platelets, purified from activated platelets
- Number of adherent cells representing 100% adhesion ([1]; TSP-coated microtiter wells): 500 adherent cells per min'

— article PMC2289263 (The Journal of Cell Biology, 1992)
